The values that follow come from article PMC10077692, “Phytochemical profile, comparative evaluation of Satureja montana alcoholic extract for antioxidants, anti-inflammatory and molecular docking studies” (BMC Complementary Medicine and Therapies, 2023).

The assay has as its system MDA. Put plainly: In-vitro antioxidant assay, MDA. It counts as biochemical. The procedure:
The enzymatic assays of COXs, LOX, TAC, Catalase, MDA, GSH, SOD, TNF -α, and MPO were determined colorimetrically as mentioned previously in reports.
Microsoft Excel 2010 program. All the data in Table 4 was represented as mean ± SD [23].
Total antioxidant capacity is the measure of the number of free radicals scavenged by a test solution, being used to evaluate the antioxidant capacity of biological samples. […] The standard ascorbic acid results were (19.7, 17.2 and 13.1 IU/ml) for TAC, Catalase and SOD, respectively.

As for `O=C1O[C@H]([C@@H](O)CO)C(O)=C1O` [ascorbic acid], the MDA level was determined as 15.3 µg/mL.
